Entries after “also recorded” stand apart in the source; their conditions may differ. Read-outs that look alike come from different tables or passages of the source.
Assays:
[1] = tested on: IL-6 production in H1N1-infected A549 cells; format: cell-based, human
[2] = biological target: NA of A/Sydney/5/97 (H3N2) (Influenza A virus, UniProt Q9DIC9); experiment: Neuraminidase inhibition assay (fluorimetric, MUNANA); format: biochemical, influenza A virus A/Sydney/5/97 (H3N2)
[3] = tested on: MCP-1 production in H1N1-infected A549 cells; format: cell-based, human
[4] = NA from A/Sydney/5/97 (H3N2), 37 °C, 40 min, pH 6.5, read-out: IC50, inhibition of NA, A/Sydney/5/97(H3N2) (converted)

O=C(Oc1cc(O)c2c(c1)OC(c1cc(O)c(O)c(O)c1)C(O)C2)c1cc(O)c(O)c(O)c1 (single isomer, unassigned; (+)) [Compound 3, (+)-3,5,3',4',5'-penta-hydroxyflavan-7-gallate]
inhibition of IL-6 expression induced by influenza H1N1 virus (in words) [1]: weakest inhibition; also recorded: worst inhibition
IC50 [2, 4]: > 87.3 µM
inhibition of MCP-1 expression induced by influenza H1N1 virus (in words) [3]: worst inhibition

CC1(C)O[C@@H]2Cc3c(O)cc(OC(=O)c4cc(O)c(O)c(O)c4)cc3O[C@@H]2c2cc(O)c(O)c(O)c21 [Compound 1, (2R,3R)-7-O-galloylplumbocatechin A]
IC50 [2, 4]: 64.7 µM
inhibition of MCP-1 expression induced by influenza H1N1 virus (in words) [3]: inhibit MCP-1 expression best at the lowest concentrated dilution of 3 μg/mL; also recorded: best results

O=C(Oc1cc(O)c2c(c1)O[C@H](c1cc(O)c(O)c(O)c1)CC2)c1cc(O)c(O)c(O)c1 [Compound 2, (−)-5,3',4',5'-tetrahydroxyflavan-7-gallate]
inhibition of IL-6 expression induced by influenza H1N1 virus (in words) [1]: best inhibitory effect
IC50 [2, 4]: > 90.4 µM
inhibition of MCP-1 expression induced by influenza H1N1 virus (in words) [3]: inhibit MCP-1 expression best at the lowest concentrated dilution of 3 μg/mL

O=C(Oc1cc(O)c2c(c1)O[C@H](c1cc(O)c(OC(=O)c3cc(O)c(O)c(O)c3)c(O)c1)CC2)c1cc(O)c(O)c(O)c1 [Compound 4, (−)-7,4'-di-O-galloyltricetiflavan]
IC50 [2, 4]: > 67.3 µM

CC(=O)N[C@H]1[C@H]([C@H](O)[C@H](O)CO)OC(C(=O)O)=C[C@@H]1N=C(N)N [zanamivir, reference compound]
IC50 [2]: 0.000632 µM

Source: publication PMC6271231 (Molecules, 2014)
